Laboratory results: patent publication US12448394B2, “Heterocyclic pyrazole derivatives as type III receptor tyrosine kinase inhibitors” (DEVELOPMENT CENTER FOR BIOTECHNOLOGY, priority 2019, dated 2025)

molecular target: T1, FLT3-D835Y mutant kinase (Homo sapiens, UniProt P36888, D835Y); assay: FLT3-D835Y mutant kinase assay (AlphaScreen); format: biochemical; settings: read-out: Ranking of IC50 values, FLT3-D835Y
T1 construct: purchased SignalChem
T1 sequence (P36888 27-993 D835Y): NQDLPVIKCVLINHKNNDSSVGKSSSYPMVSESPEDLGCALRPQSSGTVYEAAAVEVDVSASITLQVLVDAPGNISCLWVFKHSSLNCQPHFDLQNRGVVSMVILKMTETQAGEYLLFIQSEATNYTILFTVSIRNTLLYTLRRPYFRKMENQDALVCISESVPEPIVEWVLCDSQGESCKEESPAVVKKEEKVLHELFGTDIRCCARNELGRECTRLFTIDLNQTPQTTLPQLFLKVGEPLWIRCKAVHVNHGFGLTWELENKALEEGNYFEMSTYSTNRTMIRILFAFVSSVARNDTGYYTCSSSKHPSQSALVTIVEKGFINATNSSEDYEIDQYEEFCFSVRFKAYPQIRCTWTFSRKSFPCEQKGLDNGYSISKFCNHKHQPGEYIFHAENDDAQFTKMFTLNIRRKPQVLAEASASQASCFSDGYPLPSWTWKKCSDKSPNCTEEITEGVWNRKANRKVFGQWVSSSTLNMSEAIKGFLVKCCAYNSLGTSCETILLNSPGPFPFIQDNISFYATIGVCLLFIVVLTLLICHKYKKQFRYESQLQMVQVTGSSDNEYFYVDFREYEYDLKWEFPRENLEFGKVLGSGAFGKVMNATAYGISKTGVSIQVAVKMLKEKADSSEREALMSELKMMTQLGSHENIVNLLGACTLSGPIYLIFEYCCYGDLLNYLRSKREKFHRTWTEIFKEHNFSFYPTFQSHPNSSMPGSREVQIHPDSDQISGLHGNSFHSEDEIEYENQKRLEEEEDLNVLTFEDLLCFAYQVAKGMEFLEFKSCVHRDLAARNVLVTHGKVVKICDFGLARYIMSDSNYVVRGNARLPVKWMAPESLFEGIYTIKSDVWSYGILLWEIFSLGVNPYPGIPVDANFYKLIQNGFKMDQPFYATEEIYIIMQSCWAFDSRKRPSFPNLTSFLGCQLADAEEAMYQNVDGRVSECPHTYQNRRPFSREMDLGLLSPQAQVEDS
Outline: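 AlphaScreen readout of biotin-poly(Glu4:Tyr1) phosphorylation by 1 ng recombinant FLT3-D835Y. Conditions were 10 μM ATP, 10 mM MgCl2, MOPS pH 7.0, 30 min at 30 °C, EDTA stop. Compounds were serially diluted in duplicate to derive IC50.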

Row | IC50 [nM] | Compound
1 | < 1 | Cn1ncc2ccc(-c3n[nH]c4c3Cc3sc(-c5cncc(C(=O)N6CCOCC6)c5)cc3-4)cc21 [Compound 31, (5-(3-(1-methyl-1H-indazol-6-yl)-1,4-dihydrothieno[2′,3′:4,5]cyclopenta[1,2-c]pyrazol-6-yl)pyridin-3-yl) (morpholino)methanone]
2 | < 1 | Cn1ncc2ccc(-c3n[nH]c4c3Cc3sc(C5CCN(C(=O)CN6CCOCC6)CC5)cc3-4)cc21 [Compound 98, 1-(4-(3-(1-methyl-1H-indazol-6-yl)-1,4-dihydro-thieno[2′,3′:4,5]cyclopenta [1,2-c]pyrazol-6-yl)piperidin-1-yl)-2-morpholinoethan-1-one]
3 | < 1 | c1cc(-c2cc3c(s2)Cc2c(-c4ccc5cn[nH]c5c4)n[nH]c2-3)ccc1CN1CCOCC1 [Compound 6, 4-(4-(3-(1H-indazol-6-yl)-1,4-dihydrothieno[2′,3′:4,5]cyclopenta[1,2-c]pyrazol-6-yl)benzyl)morpholine]
4 | 1 to 10 | C[C@@H]1CN(Cc2ccc(-c3cc4c(s3)Cc3c(-c5ccc6cn[nH]c6c5)n[nH]c3-4)cc2)C[C@H](C)O1 [Compound 7, (2S,6R)-4-(4-(3-(1H-indazol-6-yl)-1,4-dihydrothieno[2′,3′:4,5]cyclopenta [1,2-c]pyrazol-6-yl)benzyl)-2,6-dimethylmorpholine]
5 | < 1 | Cn1ncc2ccc(-c3n[nH]c4c3Cc3sc(-c5cnc(N)nc5)cc3-4)cc21 [Compound 45, 5-(3-(1-methyl-1H-indazol-6-yl)-1,4-dihydrothieno [2′,3′:4,5]cyclopenta[l,2-c]pyrazol-6-yl)pyrimidin-2-amine]
6 | 1 to 10 | Cn1ncc2ccc(-c3n[nH]c4c3Cc3sc(-c5ccc(CN6CCOCC6)c(F)c5)cc3-4)cc21 [Compound 25, 4-(2-fluoro-4-(3-(1-methyl-1H-indazol-6-yl)-1,4-dihydrothieno[2′,3′:4,5]cyclopenta[1,2-c]pyrazol-6-yl)benzyl)morpholine]
7 | < 1 | Cn1ncc2ccc(-c3n[nH]c4c3Cc3sc(-c5ccc(CN6CCOCC6)cn5)cc3-4)cc21 [Compound 95, 4-((6-(3-(1-methyl-1H-indazol-6-yl)-1,4-dihydro-thieno[2′,3′:4,5]cyclopenta [1,2-c]pyrazol-6-yl)pyridin-3-yl)methyl) morpholine]
8 | 1 to 10 | Cn1ncc2ccc(-c3n[nH]c4c3Cc3sc(-c5ccc(CN6CCSCC6)cc5)cc3-4)cc21 [Compound 39, 3-(1-methyl-1H-indazol-6-yl)-6-(4-(thiomorpho-linomethyl)phenyl)-1,4-dihydrothieno[2′,3′:4,5] cyclopenta[1,2-c]pyrazole]
9 | < 1 | C[C@@H]1CN(Cc2ccc(-c3cc4c(s3)Cc3c(-c5ccc6cnn(C)c6c5)n[nH]c3-4)cn2)C[C@H](C)O1 [Compound 9, (2S,6R)-2,6-dimethyl-4-((5-(3-(1-methyl-lH-indazol-6-yl)-1,4-dihydro-thieno[2′,3′:4,5]cyclopenta [1,2-c]pyrazol-6-yl)pyridin-2-yl)methyl) morpholine]
10 | 1 to 10 | Cn1ncc2ccc(-c3n[nH]c4c3Cc3sc(-c5ccc(CC6CCOCC6)cc5)cc3-4)cc21 [Compound 77, 3-(1-methyl-1H-indazol-6-yl)-6-(4-((tetrahydro-2H-pyran-4-yl)methyl)phenyl)-1,4-dihydrothieno [2′,3′:4,5]cyclopenta [1,2-c]pyrazole]
11 | < 1 | Cn1ncc2ccc(-c3n[nH]c4c3Cc3sc(N5CCOCC5)cc3-4)cc21 [Compound 78, 4-(3-(1-methyl-1H-indazol-6-yl)-1,4-dihydro-thieno[2′,3′:4,5]cyclopenta [1,2-c]pyrazol-6-yl) morpholine]
12 | < 1 | Cn1ncc2ccc(-c3n[nH]c4c3Cc3sc(-c5ccc(CN6CCC(N7CCOCC7)CC6)cc5)cc3-4)cc21 [Compound 80, 4-(1-(4-(3-(1-methyl-1H-indazol-6-yl)-1,4-dihydro-thieno[2′,3′:4,5]cyclopenta [1,2-c]pyrazol-6-yl)benzyl)piperidin-4-yl) morpholine]
13 | 1 to 10 | Cn1ncc2ccc(-c3n[nH]c4c3Cc3sc(-c5ccc(C(=O)N6CCCC6)cc5)cc3-4)cc21 [Compound 38, (4-(3-(1-methyl-1H-indazol-6-yl)-1,4-dihydro-thieno[2′,3′:4,5]cyclopenta [1,2-c]pyrazol-6-yl)phenyl)(pyrrolidin-1-yl) methanone]
14 | 1 to 10 | Cn1ncc2ccc(-c3n[nH]c4c3Cc3sc(-c5cnc(C(=O)N6CCOCC6)nc5)cc3-4)cc21 [Compound 41, (5-(3-(1-methyl-1H-indazol-6-yl)-1,4-dihydrothieno[2′,3′:4,5]cyclopenta[1,2-c]pyrazol-6-yl)pyrimidin-2-yl) (morpholino)methanone]
15 | < 1 | Cn1ncc2ccc(-c3n[nH]c4c3Cc3sc(-c5ccc(S(=O)(=O)N6CCOCC6)cc5)cc3-4)cc21 [Compound 47, 4-((4-(3-(1-methyl-1H-indazol-6-yl)-1,4-dihydro-thieno[2′,3′:4,5]cyclopenta [1,2-c]pyrazol-6-yl)phenyl)sulfonyl) morpholine]
16 | < 1 | COC1CN(Cc2ccc(-c3cc4c(s3)Cc3c(-c5ccc6cnn(C)c6c5)n[nH]c3-4)cc2)C1 [Compound 105, 6-(4-((3-methoxyazeti-din-1-yl)methyl)phenyl)-3-(1-methyl-1H-indazol-6-yl)-1,4-dihydrothieno [2′,3′:4,5]cyclopenta [1,2-c]pyrazole]
17 | 1 to 10 | Cn1ncc2ccc(-c3n[nH]c4c3Cc3sc(-c5cc(C(=O)N6CCOCC6)ccn5)cc3-4)cc21 [Compound 56, (2-(3-(1-methyl-1H-indazol-6-yl)-1,4-dihydro-thieno[2′,3′:4,5]cyclopenta [1,2-c]pyrazol-6-yl)pyridin-4-yl)(morpholino) methanone]
18 | < 1 | Cn1ncc2ccc(-c3n[nH]c4c3Cc3sc(-c5ccc(CN6CCOCC6)nc5)cc3-4)cc21 [Compound 10, 4-((5-(3-(1-methyl-1H-indazol-6-yl)-1,4-dihydro-thieno[2′,3′:4,5]cyclopenta [1,2-c]pyrazol-6-yl)pyridin-2-yl)methyl)morpholine]
19 | < 1 | Cn1ncc2ccc(-c3n[nH]c4c3Cc3sc(C5CCNCC5)cc3-4)cc21 [Compound 96, 3-(1-methyl-1H-indazol-6-yl)-6-(piperidin-4-yl)-1,4-dihydrothieno [2′,3′:4,5]cyclopenta [1,2-c]pyrazole]
20 | < 1 | Cn1cc(-c2cc3c(s2)Cc2c(-c4ccc5cnn(C)c5c4)n[nH]c2-3)cc1C(=O)N1CCOCC1 [Compound 46, (1-methyl-4-(3-(1-methyl-1H-indazol-6-yl)-1,4-dihydrothieno[2′,3′:4,5]cyclopenta[1,2-c]pyrazol-6-yl)-1H-pyrrol-2-yl) (morpholino)methanone]
21 | 1 to 10 | CC(C)n1ncc2ccc(-c3n[nH]c4c3Cc3sc(-c5ccc(CN6CCOCC6)cc5)cc3-4)cc21 [Compound 42, 4-(4-(3-(1-isopropyl-1H-indazol-6-yl)-1,4-dihydro-thieno[2′,3′:4,5]cyclopenta [1,2-c]pyrazol-6-yl)benzyl)morpholine]
22 | < 1 | Cn1ncc2ccc(-c3n[nH]c4c3Cc3sc(C#CCN5CCOCC5)cc3-4)cc21 [Compound 71, 4-(3-(3-(1-methyl-1H-indazol-6-yl)-1,4-dihydro-thieno[2′,3′:4,5]cyclopenta [1,2-c]pyrazol-6-yl)prop-2-yn-1-yl)morpholine]
